Experimental data as given in patent US9751875B2, “Quinine compounds, and optical isomers, preparation method and medical use thereof” (BEIJING FSWELCOME TECHNOLOGY DEVELOPMENT CO., LTD., priority 2013, dated 2017).
Like-named read-outs stand apart in the source and are kept apart here.

How the values were obtained:
[1] = system: tracheal smooth muscle from guinea pigs (contraction induced by 3 × 10^−6 mol/L of CCh); assay: Antagonism in vitro of contraction of isolated tracheal smooth muscle from guinea pigs induced by carbachol (CCh); format: cell-based, guinea pig; conditions: cumulative dosing
Excerpt: Preparation of the Isolated Tracheal Smooth Muscle Specimen from a Guinea Pig:
After a guinea pig was narcotized with urethane, the trachea between the throat and carina of the guinea pig was taken out rapidly, and placed in the Krebs-Henseleit (K-H) solution (composition (g/L): NaCl 6.92, KCl 0.35, CaCl2 0.28, KH2PO4 0.16, MgSO4.7H2O 0.4568, NaHCO3 2.1, Glucose 2.0) with a mixture gas of 5% CO2 and 95% O2 purged. After loose connective tissues and fats around the trachea were separated, the trachea was cut into trachea pieces having a width of about 3 mm and a length of 20 mm by a surgical scissor, with both ends of the trachea piece ligated with 4˜0 silk suture, and then placed into a thermostatic bath containing 5 ml of K—H solution (pH 7.4) at 37° C., with the mixture gas of 5% CO2 and 95% O2 continuously purged. A muscle tension transducer was connected to the upper end so as to apply 1.0 g of resting tension to the specimen, the change of the tension was recorded, the culture solution was replaced every 20 min, and the test was started after being balanced for 60 min.
Administration method: After the trachea piece was stabilized, 3×10^−6 mol/L of CCh was added into a bath, and after the contractile tension of the trachea piece reached a peak level, the example compounds, ipratropium bromide and tiotropium bromide were added into a Magnus bath by a cumulative dosing regimen with a dosage of 10^−9˜10^−5 mol, respectively, and the diastolic condition of the trachea piece was observed: if no response occurred (below the threshold concentration), a next dosage was continued to be added in sequence; if response occurred, after it reached a diastolic plateau, a next dosage was further added. The above operation was repeated until the contractile curve reached the minimum value. Finally, 10^−6 mol/L of isoprenaline was added so that the maximum relaxation would be reached and the curve was recorded.
Statistical approach: The result was expressed as mean ±standard deviation, and counted by Sigma Stat statistical package. The data was analyzed by using variance analysis, the comparison among means of a plurality of specimen was performed by using Student-Newman-Keuls(SNK) test; statistical significant level α=0.05 (bilateral).
Compounds shown in Table 5 were further prepared according to the present invention, and their IC50 […] of resistance to the contraction of tracheal smooth muscle from guinea pigs induced by a concentration of 3×10^−6 mol/L of CCh was determined.

[2] = system: tracheal smooth muscle from guinea pigs (contraction induced by 3 × 10^−6 mol/L of CCh); assay: as above; format: cell-based, guinea pig
[3] = read-out: IC50 (μM), antagonism in vitro against the contraction of the tracheal smooth muscle induced by CCh, 3 × 10^−6 mol/L of CCh
[4] = Cavia porcellus, 3 × 10^−6 mol/L of CCh, read-out: IC50 (μM), antagonism in vitro against the contraction of the tracheal smooth muscle induced by CCh
[5] = Cavia porcellus, read-out: IC50 (μM), antagonism in vitro against the contraction of the tracheal smooth muscle induced by CCh, 3 × 10^−6 mol/L of CCh
[6] = 3 × 10^−6 mol/L of CCh, read-out: IC50 (μM), antagonism in vitro against the contraction of the tracheal smooth muscle induced by CCh

Molecule	IC50 [1, 3]	Onset time [2]	Time for eliminating inhibition effect (min) [2]	IC50 [1, 4]	IC50 [1, 5]	IC50 [1, 6]	Time for eliminating inhibition effect [2]
OC(CO[C@@H]1C[N+]2(CCCOc3ccccc3)CCC1CC2)(c1ccccc1)C1CC1.[Br-] (stereo partly drawn) [Example 21, (2S,3R)-3-[(2-cyclopropyl-2-hydroxyl-2-phenyl)ethoxyl]-1-(3-phenoxypropyl)-1-azabicyclo[2,2,2]octane bromide]	1.35 µM	6.79 min	more than 300 min	–	–	–	–
OC(CO[C@@H]1C[N+]2(CCCOc3ccccc3)CCC1CC2)(c1ccccc1)C1CC1.[Br-] (stereo partly drawn) [Example 22, (2R,3R)-3-[(2-cyclopropyl-2-hydroxyl-2-phenyl)ethoxyl]-1-(3-phenoxypropyl)-1-azabicyclo[2,2,2]octane bromide]	0.373 µM	6.45 min	more than 300 min	–	–	–	–
OC(CO[C@H]1C[N+]2(CCCOc3ccccc3)CCC1CC2)(c1ccccc1)C1CC1 (stereo partly drawn) [Example 24, (2R,3R),(2S,3S) Configuration of 3-[(2-cyclopropyl-2-hydroxyl-2-phenyl)ethoxyl]-1-(3-phenoxypropyl)-1-azabicyclo[2,2,2]octane bromide]	–	6.58 min	more than 300 min	0.451 µM	–	–	–
OC(CO[C@@H]1C[N+]2(CCOc3ccccc3)CCC1CC2)(c1ccccc1)C1CCCC1.[Br-] (stereo partly drawn) [Example 25, (2S,3R)-3-[(2-cyclopentyl-2-hydroxyl-2-phenyl)ethoxyl]-1-(2-phenoxyethyl)-1-azabicyclo[2,2,2]octane bromide]	–	6.36 min	more than 300 min	–	0.867 µM	–	–
OC(CO[C@@H]1C[N+]2(COc3ccccc3)CCC1CC2)(c1ccccc1)C1CCCC1.[Br-] (stereo partly drawn) [Example 27, (2R,3R)-3-[(2-cyclopentyl-2-hydroxyl-2-phenyl)ethoxyl]-1-phenoxymethyl-1-azabicyclo[2,2,2]octane bromide]	–	5.89 min	more than 300 min	–	0.0363 µM	–	–
OC(CO[C@@H]1C[N+]2(COCOc3ccccc3)CCC1CC2)(c1ccccc1)C1CCCC1.[Cl-] (stereo partly drawn) [Example 28, (2R,3R)-3-[(2-cyclopentyl-2-hydroxyl-2-phenyl)ethoxyl]-1-phenoxymethoxymethyl-1-azabicyclo[2,2,2]octane chloride]	–	6.06 min	more than 300 min	0.0264 µM	–	–	–
OC(COC1C[N+]2(CCCOc3ccccc3)CCC1CC2)(c1cccc2ccccc12)C1CCCC1.[Br-] [Example 29, (2R,3R)-3-[(2-cyclopentyl-2-hydroxyl-2-naphthyl)ethoxyl]-1-(3-phenoxypropyl)-1-azabicyclo[2,2,2]octane bromide]	–	7.14 min	more than 300 min	–	0.723 µM	–	–
OC(COC1C[N+]2(CCCOc3ccccc3)CCC1CC2)(c1ccccc1Cl)C1CCCC1.[Br-] [Example 30, (2R,3R)-3-[(2-cyclopentyl-2-hydroxyl-2-o-chlorophenyl)ethoxyl]-1-(3-phenoxypropyl)-1-azabicyclo[2,2,2]octane bromide]	–	5.98 min	more than 300 min	–	0.0371 µM	–	–
OC(COC1C[N+]2(CCCOc3ccccc3)CCC1CC2)(c1cccnc1)C1CCCC1.[Br-] [Example 31, (2R,3R)-3-[(2-cyclopentyl-2-hydroxyl-2-(3-pyridyl))ethoxyl]-1-(3-phenoxypropyl)-1-azabicyclo[2,2,2]octane bromide]	–	6.37 min	more than 300 min	–	0.0206 µM	–	–
OC(COC1C[N+]2(CCCOc3ccccc3)CCC1CC2)(c1ccco1)C1CCCC1.[Br-] [Example 32, (2R,3R)-3-[(2-cyclopentyl-2-hydroxyl-2-(2-furyl))ethoxyl]-1-(3-phenoxypropyl)-1-azabicyclo[2,2,2]octane bromide]	–	5.85 min	more than 300 min	–	0.0379 µM	–	–
COC(COC1C[N+]2(CCCOc3ccccc3)CCC1CC2)(c1cccnc1)C1CCCC1.[Br-] [Example 33, (2R,3R)-3-[(2-cyclopentyl-2-methoxyl-2-(3-pyridyl))ethoxyl]-1-(3-phenoxypropyl)-1-azabicyclo[2,2,2]octane bromide]	–	6.17 min	more than 300 min	–	0.139 µM	–	–
CC(C)[N+]1(C)[C@@H]2CC[C@H]1CC(OC(=O)C(CO)c1ccccc1)C2.[Br-] (stereo partly drawn) [ipratropium bromide, reference compound]	–	6.82 min	–	–	–	0.0361 µM	185 min
C[N+]1(C)[C@@H]2C[C@@H](OC(=O)C(O)(c3cccs3)c3cccs3)C[C@H]1[C@@H]1O[C@@H]12 [tiotropium bromide, reference compound]	–	30.37 min	more than 300 min	–	0.0142 µM	–	–
(2R,3R),(2S,3S) Configuration of 3-[(2-cyclopentyl-2-hydroxyl-2-phenyl)ethoxyl]-1-(3-phenoxypropyl)-1-azabicyclo[2,2,2]octane bromide [Example 6]	–	6.61 min	more than 300 min	–	–	0.156 µM	–
(2R,3R),(2S,3S)-3-[(2-cyclohexyl-2-hydroxyl-2-phenyl)ethoxyl]-1-(3-phenoxypropyl)-1-azabicyclo[2,2,2]octane bromide [Example 12]	–	7.13 min	more than 300 min	–	–	0.251 µM	–
(2R,3S),(2S,3R)-3-[(2-cyclopropyl-2-hydroxyl-2-phenyl)ethoxyl]-1-(3-phenoxypropyl)-1-azabicyclo[2,2,2]octane bromide [Example 23]	–	6.78 min	more than 300 min	–	–	2.02 µM	–
